This note sets out measurements from US20250326718A1, “4-PHENYL-2-PYRROLIDINONES AND METHODS OF USING THEREOF” (North Carolina State University, priority 2022, published 2025).

Broadly, the MIC is the lowest concentration that inhibits growth of the organism. By inhibition is commonly meant the relative decrease from the control value, in per cent.

Values after ≈ are worked out from the molar mass of the structure shown. Counter-ions that a name gives are not always drawn. Like-named read-outs stand apart in the source and are kept apart here.

The subject of one test is MRSA (ATCC 33591). Description: Broth microdilution MIC, MRSA ATCC 33591. Type of test: cell-based. To be noted: Staphylococcus aureus; Table 1, Compounds 1-15; preliminary data, modified non-standard conditions (pH 9), solubility-limited. The protocol:
(§1) General information—Biological Assays. Methicillin-resistant and methicillin sensitive Staphylococcus aureus (MRSA and MSSA respectively) strains were obtained from the Laboratory of Professor Christian Melander (NCSU) (ATCC BAA 44 and 33591) and Dr. Jessica Gilbertie (ATCC 25923). Bacteria were kept in frozen stocks on glycerol at −80° C. until use. Bacteria was streaked onto tryptic-soy agar for colony isolation. Mueller-Hinton broth (MHB, 211443-BD), tryptic soy broth (TSB, Remel: R455052) and D-glucose (CAS: 492-62-6) were purchased from Fisher Scientific. Tryptic soy agar (TSA, cat. #22091) and Linezolid (cat. #P70014) were purchased from Sigma-Aldrich. Bacteria for biofilm inhibition were cultured overnight in TSB-G (tryptic soy broth with 0.5% glucose supplement) in 96 well plates. All assays were run in duplicate and repeated at least two separate times for MIC assays and at least three separate times for biofilm inhibition. All compounds were dissolved in molecular biology grade DMSO as 10 mM stock solutions. Optical densities were measured using a Thermo Scientific Genesys 20 spectrophotometer. Data for biofilm inhibition were collected using a BioTek ELx808 Microplate Reader. All graphs were generated and analyzed using GraphPad Prism 7.
Broth microdilution method for determination of minimum inhibitory concentrations. As prescribed by the Clinical and Laboratory Standards Institute (CLSI) M07-A8, Vol. 29 (2) MSSA (ATCC 25923) and MRSA (ATCC BAA 44 and 33591) was grown in MHB for 6-8 h; this culture was used to inoculate fresh MHB (5×10^5 CFU/mL). The resulting bacterial suspension was aliquoted (1 mL) into 1.5 mL Eppendorf tubes and compound was added from a 10 mM DMSO stock to achieve the desired initial starting concentration (typically 128 μg/mL). Linezolid (from a 10 mM DMSO stock) was used as a positive control. Inoculated media not treated with compound served as the negative control. The MIC was determined by microbroth dilution following the CLSI guidelines. The MIC was defined as the lowest concentration of antibiotic with no visible growth. The plate was sealed and incubated under stationary conditions at 37° C.
The antimicrobial activity of Compounds 1-15 was assessed initially against MSSA (ATCC 25923) and MRSA (ATCC 33591) strains. It was observed that almost all these compounds precipitated in aqueous solution at concentrations equal or higher than 8-16 μg/mL. In order to obtain preliminary results on the antimicrobial activity for these compounds, the standard conditions of the antimicrobial assays used where modified to favor the water solubility of these compounds.
(In general: Broth dilution looks for growth in wells or tubes with falling amounts of substance.)

Test [1] concerns MRSA (ATCC BAA 44) biofilm. As to the kind of experiment: Inhibition of MRSA biofilm formation (crystal violet). Type of test: cell-based. To be noted: Staphylococcus aureus, 24 h, Table 1. The protocol: as §1
Determination of the inhibitory effect of test compounds on MRSA biofilm formation. Inhibition assays were performed using a procedure adapted from S. A. Rogers and C. Melander, Angew. Chem. Int. Ed., 2008, 47, 5229-5231, which is hereby incorporated herein by reference. Briefly, the inhibition assays were performed by subculturing an overnight culture of MRSA (ATCC BAA 44) to an OD600 of 0.01 in TSB-G (tryptic soy broth with a 0.5% glucose supplement). Stock solutions of predetermined concentrations of the test compound were then made using the inoculated TSB-G. These stock solutions were aliquoted (100 μL) into the wells of the 96-well microtiter plate. Sample plates were sealed then incubated for 24 h at 37° C. After incubation, the medium was discarded from the wells and the plates were washed 2× with PBS. Prior to staining, plates were left to dry at ambient temperature for 2-3 h. Plates were then stained with 0.1% solution of crystal violet (CV, 125 μL) and then incubated at ambient temperature for 30 min. Plates were washed with PBS again and the remaining stain was solubilized with 99% ethanol (200 μL). A sample of solubilized CV stain (110 μL) from each well was transferred to the corresponding wells of a polystyrene microtiter dish. Biofilm biomass was quantified by measuring the OD540 of each well and inhibition was calculated as a percentage of the control (no compound); a negative control lane wherein no biofilm was formed served as a background and was subtracted out. Percent inhibition was then plotted against concentration in Prism 7. Each of the four experiments were plotted separately and S15 analyzed by a normalized nonlinear regression. The graphs on the following pages were generated from an average of the total data set. Biofilm data represent four separate experiments, with each experiment performed in duplicate (average of 8 data points for each concentration tested, unless otherwise noted).

The subject of another test is MSSA (ATCC 25923). Description: Broth microdilution MIC, MSSA ATCC 25923. Type of test: cell-based. Conditions: Staphylococcus aureus, read-out: MIC value against MSSA ATCC 25923.
The subject of test [2] is MSSA (ATCC 25923) biofilms. Description: Minimum Biofilm Eradication Concentration (MBEC), Calgary Biofilm Device. Type of test: cell-based, Staphylococcus aureus. To be noted: antibiotic alone.
Method: MBEC concentrations were measured using a procedure adapted from H. Ceri, et al., J Clin. Microbiol., 1999, 1771-1776, which is hereby incorporated herein by reference. Briefly, biofilm eradication experiments were performed using MSSA (ATCC 25923) and the Calgary Biofilm Device (CBD) to determine MBEC values for various compounds of interest (Innovotech, product code: 19111). The Calgary device is a 96-well plate with a lid containing 96 pegs that sit in the media contained in the bottom well. Biofilm are established on the individual pegs. The established biofilm (contained on the individual peg) can then be transferred to a new base well for MBEC testing. For the MBEC assay, an overnight culture of MSSA (ATCC 25923) was adjusted to 0.5 McFarland in MHB-G. The CBD was inoculated with 100 μL of the 0.5 McFarland and incubated at 37° C. for 24 hours to establish biofilms. The CBD lid containing the established biofilms on individual pegs was removed, washed 3× with PBS and transferred to another 96-well plate containing serial dilutions of the test compounds (the “challenge plate”) and incubated at 37° C. for 24 hours. […] The plate was then sonicated for sonicated for 30 minutes to disperse biofilms on S16 the pegs into the fresh MHB in the base well. After sonication, the plate was incubated for 24 hours at 37° C.

Regarding `CCC1C(c2ccc(C(F)(F)F)cc2)=C(O)C(=O)N1Cc1ccc(OC)cc1OC` (stereo not shown) [Compound 15], the minimal inhibitory concentration (MIC) against MRSA (ATCC 33591) is above 128 mg/L. Further, in test [1], the inhibition at 5 µM turned out to be 63% and the inhibition at 40 µM was 57%.

On to `CCC1C(c2ccc(C(F)(F)F)cc2)=C(O)C(=O)N1c1ccccc1` (stereo not shown) [Compound 1, 5-Ethyl-3-hydroxy-1-phenyl-4-(4-(trifluoromethyl)phenyl)-1,5-dihydro-2H-pyrrol-2-one], for which 16 mg/L (≈ 46.1 µM) was the least that counted as inhibitory against MRSA (ATCC 33591) (MIC). For the same compound, in test [1], the inhibition at 5 µM amounted to 5% and the inhibition at 40 µM was 85%.

In turn, `CC(C)C1C(c2ccc(C(F)(F)F)cc2)=C(O)C(=O)N1c1ccccc1` (stereo not shown) [Compound 10, 3-Hydroxy-5-isopropyl-1-phenyl-4-(4-(trifluoromethyl)phenyl)-1,5-dihydro-2H-pyrrol-2-one] came in with a minimum inhibitory concentration (MIC) in the test on MRSA (ATCC 33591) above 128 mg/L. Moreover, in test [1], the inhibition at 5 µM was -5% and the inhibition at 40 µM was 3%.

In the test on MRSA (ATCC 33591), `CCC1C(c2ccc(C(F)(F)F)cc2)=C(O)C(=O)N1Cc1cccs1` (stereo not shown) [Compound 7, 5-Ethyl-3-hydroxy-1-(thiophen-2-ylmethyl)-4-(4-(trifluoromethyl)phenyl)-1,5-dihydro-2H-pyrrol-2-one] returned a minimum inhibitory concentration (MIC) above 128 mg/L. In test [1], the inhibition at 5 µM came out at 54% and the inhibition at 40 µM is 79%.

As to `CN[C@H](CC(C)C)C(=O)N[C@H]1C(=O)N[C@@H](CC(N)=O)C(=O)N[C@H]2C(=O)N[C@H]3C(=O)N[C@H](C(=O)N[C@H](C(=O)O)c4cc(O)cc(O)c4-c4cc3ccc4O)[C@H](O)c3ccc(c(Cl)c3)Oc3cc2cc(c3O[C@@H]2O[C@H](CO)[C@@H](O)[C@H](O)[C@H]2O[C@H]2C[C@](C)(N)[C@H](O)[C@H](C)O2)Oc2ccc(cc2Cl)[C@H]1O` [Vancomycin, vancomycin hydrochloride, reference compound], in the test on MSSA (ATCC 25923), the MIC is 0.5 mg/L. Further, the “MBEC value against MSSA ATCC 25923” value in test [2] is given as 2048 pug/mL.

In the test with MRSA (ATCC 33591), `CCC1C(c2ccc(C(F)(F)F)cc2)=C(O)C(=O)N1c1cccnc1` (stereo not shown) [Compound 6, 5-Ethyl-3-hydroxy-1-(pyridin-3-yl)-4-(4-(trifluoromethyl)phenyl)-1,5-dihydro-2H-pyrrol-2-one] showed an MIC above 128 mg/L. For the same compound, in test [1], the inhibition at 5 µM was 4% and the inhibition at 40 µM was 31%.

For the compound `CCC1C(c2ccc(C(F)(F)F)cc2)=C(O)C(=O)N1CCC(C)C` (stereo not shown) [Compound 14, 5-Ethyl-3-hydroxy-1-isopentyl-4-(4-(trifluoromethyl)phenyl)-1,5-dihydro-2H-pyrrol-2-one], the MIC with MRSA (ATCC 33591) was above 128 mg/L. Besides, in test [1], the inhibition at 5 µM was 47% and the inhibition at 40 µM was determined as 43%.

As to `CCC1C(c2ccc(C(F)(F)F)cc2)=C(O)C(=O)N1c1ccc(Br)cc1` (stereo not shown) [Compound 3, 1-(4-Bromophenyl)-5-ethyl-3-hydroxy-4-(4-(trifluoromethyl)phenyl)-1,5-dihydro-2H-pyrrol-2-one], the minimal inhibitory concentration (MIC) in the test with MRSA (ATCC 33591) came out at 32 mg/L (≈ 75.1 µM). Further, in test [1], the inhibition at 5 µM is 34% and the inhibition at 40 µM stood at 72%.

Turning to `CCCCCN1C(=O)C(O)=C(c2ccc(C(F)(F)F)cc2)C1CC` (stereo not shown) [Compound 11, 5-Ethyl-3-hydroxy-1-pentyl-4-(4-(trifluoromethyl)phenyl)-1,5-dihydro-2H-pyrrol-2-one], the minimum inhibitory concentration (MIC) against MRSA (ATCC 33591) was determined as 16 mg/L (≈ 46.9 µM). Besides, in test [1], the inhibition at 5 µM is 58% and the inhibition at 40 µM is 63%.

Turning to `CC1C(c2ccc(C(F)(F)F)cc2)=C(O)C(=O)N1c1ccccc1` (stereo not shown) [Compound 2, 3-Hydroxy-5-methyl-1-phenyl-4-(4-(trifluoromethyl)phenyl)-1,5-dihydro-2H-pyrrol-2-one], inhibition of growth in the test with MRSA (ATCC 33591) (MIC) required 32 mg/L (≈ 96 µM). In test [1], the inhibition at 5 µM is -26% and the inhibition at 40 µM came out at 72%.

The compound `CCC1C(c2ccc(C(F)(F)F)cc2)=C(O)C(=O)N1CCc1ccccc1` (stereo not shown) [Compound 8, 5-Ethyl-3-hydroxy-1-phenethyl-4-(4-(trifluoromethyl)phenyl)-1,5-dihydro-2H-pyrrol-2-one] registered a minimum inhibitory concentration (MIC) with MRSA (ATCC 33591) above 128 mg/L. In test [1], the inhibition at 5 µM amounted to 23% and the inhibition at 40 µM was determined as 46%.

As for `Cc1onc(-c2ccccc2)c1C(=O)N[C@@H]1C(=O)N2[C@@H]1SC(C)(C)[C@@H]2C(=O)O` [Oxacillin, oxacillin sodium monohydrate, reference compound], the MIC with MSSA (ATCC 25923) (antibiotic alone) was 0.5 mg/L. In addition, in test [2], the “MBEC value against MSSA ATCC 25923” value worked out at 2048 pug/mL.

`CCC1C(c2ccc(C(F)(F)F)cc2)=C(O)C(=O)N1c1ccc(F)cc1` (stereo not shown) [Compound 4, 5-Ethyl-1-(4-fluorophenyl)-3-hydroxy-4-(4-(trifluoromethyl)phenyl)-1,5-dihydro-2H-pyrrol-2-one] displayed a minimal inhibitory concentration (MIC) in the test on MRSA (ATCC 33591) of 16 mg/L (≈ 43.8 µM). In test [1], the inhibition at 5 µM was 22% and the inhibition at 40 µM was determined as 81%.

Compound `O=C1C(O)=C(c2ccc(C(F)(F)F)cc2)CN1c1ccccc1` [Compound 9, 3-Hydroxy-1-phenyl-4-(4-(trifluoromethyl)phenyl)-1,5-dihydro-2H-pyrrol-2-one] yielded a minimal inhibitory concentration (MIC) against MRSA (ATCC 33591) above 128 mg/L. Also, in test [1], the inhibition at 5 µM was 26% and the inhibition at 40 µM was determined as 8%.

`CCC1C(c2ccc(C(F)(F)F)cc2)=C(O)C(=O)N1c1ccc(OC)c(OC)c1` (stereo not shown) [Compound 5, 1-(3,4-Dimethoxyphenyl)-5-ethyl-3-hydroxy-4-(4-(trifluoromethyl)phenyl)-1,5-dihydro-2H-pyrrol-2-one] showed a minimal inhibitory concentration (MIC) against MRSA (ATCC 33591) above 128 mg/L. Besides, in test [1], the inhibition at 5 µM worked out at 17% and the inhibition at 40 µM came to 70%.
